# Source: article PMC7261162 (2020)
# What was measured:
# [1] = system: CatG4-ext (DNA, G4) ACATAGCTGACTGGCTTGATTTTGGGTAGGGCGGGTTGGGAAATATCGAATTCTCAGCCTACACTGCAGTACTAGTACATATCA; assay: competition with hemin: StAv gel shift of self-biotinylation; conditions: 20 mM KCl, 40 mM HEPES pH 8.0, 22°C, 5 uM hemin
# [2] = system: CatG4 (DNA, G4) TGGGTAGGGCGGGTTGGGAAA; assay: hemin-dependent self-biotinylation, StAv gel shift (indirect); conditions: 20 mM KCl; 40 mM HEPES pH 8.0, 22°C; 5 uM hemin
# [3] = system: CatG4-ext (DNA, G4) ACATAGCTGACTGGCTTGATTTTGGGTAGGGCGGGTTGGGAAATATCGAATTCTCAGCCTACACTGCAGTACTAGTACATATCA; assay: as above; conditions: 20 mM KCl, 26 mM MgCl2, 2.5 mM spermidine; QD buffer pH 8.0, 22°C; 10 nM DNA, 5 uM hemin, 100 uM ssDNA or dsDNA competitor
# [4] = system: MYC (DNA, G4) TGAGGGTGGGTAGGGTGGGTAA; assay: as above; conditions: 20 mM KCl; 40 mM HEPES pH 8.0, 22°C; 5 uM hemin
# [5] = system: KIT1 (DNA, G4) AGGGAGGGCGCTGGGAGGAGGG; assay: as above; conditions: 20 mM KCl; 40 mM HEPES pH 8.0, 22°C; 5 uM hemin
# [6] = system: KIT2 (DNA, G4) CGGGCGGGCGCGAGGGAGGGG; assay: as above; conditions: 20 mM KCl; 40 mM HEPES pH 8.0, 22°C; 5 uM hemin
# [7] = system: SPB1 (DNA, G4) GGCGAGGAGGGGCGTGGCCGGC; assay: as above; conditions: 20 mM KCl; 40 mM HEPES pH 8.0, 22°C; 5 uM hemin
# [8] = system: TBA (DNA, G4) GGTTGGTGTGGTTGG; assay: as above; conditions: 20 mM KCl; 40 mM HEPES pH 8.0, 22°C; 5 uM hemin
# [9] = system: hTELO (DNA, G4) GGTTAGGGTTAGGGTTAGGGTTAGGGTTAG; assay: as above; conditions: 20 mM KCl; 40 mM HEPES pH 8.0, 22°C; 5 uM hemin
# [10] = system: rBCL2 (RNA, G4) AGGGGGCCGUGGGGUGGGAGCUGGGG; assay: as above; conditions: 20 mM KCl; 40 mM HEPES pH 8.0, 22°C; 5 uM hemin
# [11] = system: rNRAS (RNA, G4) AGGGAGGGGCGGGUCUGGG; assay: as above; conditions: 20 mM KCl; 40 mM HEPES pH 8.0, 22°C; 5 uM hemin
# [12] = system: CatG4-T7 / ssDNA duplex-GQ chimera (DNA, G4) TGGGTAGGGCGGGTTGGGAAATATCCTATAGTGAGTCGTATTAAAG/CTTTAATACGACTCACTATAGG; assay: as above; conditions: 20 mM KCl, 26 mM MgCl2, 2.5 mM spermidine; QD buffer pH 8.0; 1 uM DNA, 5 uM hemin; CatG4-T7 strand 52%, ssDNA strand 3% biotinylated
# [13] = system: CatG4-ext2 / Comp-1 / ssDNA / Comp-3 GQ-duplex chimera (DNA, G4) TGGGTAGGGCGGGTTGGGAAATATTTTAGCTCACGAGACGCTCCCATAGTGACCTATAGTGAGTCGTATTAAAGTCCGGAGGACTGTCCTCCGGC/TCACTATGGGAGCGTCTCGTGAGCTAAA/CTTTAATACGACTCACTATAGG/GCCGGAGGACAGTCCTCCGGA; assay: as above; conditions: 20 mM KCl, 26 mM MgCl2, 2.5 mM spermidine; QD buffer pH 8.0; 1 uM DNA, 5 uM hemin; ssDNA strand not biotinylated
# [14] = 20 uM ligand lowers biotinylation 67% to 22-23%
smiles,measurement,setting,value
NCCOc1cc(C(=O)Nc2cc(OCCN)c3ccccc3n2)nc(C(=O)Nc2cc(OCCN)c3ccccc3n2)c1,binding,[1]; 20 uM ligand lowers biotinylation 67% to 1%,yes
CCc1c(C)c2cc3nc(cc4nc(cc5c(CC)c(C)c(cc1[nH]2)n5C)C(C)=C4CCC(=O)O)C(CCC(=O)O)=C3C,binding,[1]; [14],yes
CN(C)c1ccc(Nc2c3ccc(NC(=O)CCN4CCCC4)cc3nc3cc(NC(=O)CCN4CCCC4)ccc23)cc1,binding,[1]; [14],yes
C=CC1=C(C)C2=Cc3c(C=C)c(C)c4[n]3[Fe]([Cl])[n]3c(c(C)c(CCC(=O)O)c3=CC3=NC(=C4)C(C)=C3CCC(=O)O)=CC1=N2,binding,[2],yes
same,binding,[3],yes
same,binding,[4],yes
same,binding,[5],yes
same,binding,[6],yes
same,binding,[7],weak
same,binding,[8],weak
same,binding,[9],yes
same,binding,[10],yes
same,binding,[11],yes
same,binding,[12],yes
same,binding,[13],yes
